{"source": "paper PMC9454393", "about": "(Scientific Reports, 2022)", "key": {"AChE [1]": {"target": "T1, AChE (Homo sapiens, UniProt P22303)", "T1 sequence (P22303 32-614)": "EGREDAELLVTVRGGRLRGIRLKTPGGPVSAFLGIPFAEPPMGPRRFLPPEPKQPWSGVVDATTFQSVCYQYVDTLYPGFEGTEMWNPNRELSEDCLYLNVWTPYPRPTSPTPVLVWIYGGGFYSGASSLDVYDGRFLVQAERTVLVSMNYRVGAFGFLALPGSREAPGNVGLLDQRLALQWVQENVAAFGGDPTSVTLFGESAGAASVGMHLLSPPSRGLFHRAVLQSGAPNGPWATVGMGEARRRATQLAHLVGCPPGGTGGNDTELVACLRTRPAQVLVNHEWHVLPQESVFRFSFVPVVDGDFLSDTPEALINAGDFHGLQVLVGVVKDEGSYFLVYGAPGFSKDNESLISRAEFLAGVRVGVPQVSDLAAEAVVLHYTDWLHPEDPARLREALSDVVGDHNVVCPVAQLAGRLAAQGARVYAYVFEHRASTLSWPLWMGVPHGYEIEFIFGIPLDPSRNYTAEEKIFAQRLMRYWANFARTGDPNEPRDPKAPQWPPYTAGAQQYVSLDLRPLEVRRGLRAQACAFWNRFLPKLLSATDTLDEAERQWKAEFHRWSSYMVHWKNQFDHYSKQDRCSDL", "conditions": "cited from earlier work; for IC50: read-out: IC50 against AChE"}, "BuChE": {"test_system": "BuChE", "conditions": "read-out: IC50 against BuChE, cited from earlier work"}, "AChE [2]": {"target": "T1, AChE", "assay": "biochemical", "conditions": "mean ± SD", "description": "(§1) A previously described modified protocol of Ellman's spectrophotometric assay in clear flat-bottomed, 96-well plates, was used. […] The absorbance of each well was measured at 415 nm using a microplate reader. […]"}, "BChE": {"target": "BChE (Homo sapiens, UniProt P06276)", "sequence (P06276 29-602)": "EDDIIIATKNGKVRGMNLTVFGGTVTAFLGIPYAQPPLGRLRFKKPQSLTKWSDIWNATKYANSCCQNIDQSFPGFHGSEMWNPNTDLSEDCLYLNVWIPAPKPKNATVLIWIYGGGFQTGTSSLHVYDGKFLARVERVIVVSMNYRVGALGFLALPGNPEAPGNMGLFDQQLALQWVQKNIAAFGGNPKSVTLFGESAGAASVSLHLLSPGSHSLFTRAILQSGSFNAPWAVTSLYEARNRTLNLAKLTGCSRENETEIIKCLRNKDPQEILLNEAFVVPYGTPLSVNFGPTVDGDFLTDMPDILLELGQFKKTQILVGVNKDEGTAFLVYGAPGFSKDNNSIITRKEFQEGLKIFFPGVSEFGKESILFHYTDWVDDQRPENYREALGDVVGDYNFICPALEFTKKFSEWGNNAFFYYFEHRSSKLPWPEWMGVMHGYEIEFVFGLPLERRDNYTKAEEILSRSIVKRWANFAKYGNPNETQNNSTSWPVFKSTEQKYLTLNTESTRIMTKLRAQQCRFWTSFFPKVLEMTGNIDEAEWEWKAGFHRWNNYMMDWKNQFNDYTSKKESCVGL", "assay": "BChE inhibition, modified Ellman's spectrophotometric assay", "format": "biochemical", "description": "as §1"}, "AChE [3]": {"target": "T1, AChE", "assay": "Kinetic study of AChE inhibition (Lineweaver-Burk plots, Ellman's method)", "format": "biochemical", "description": "The kinetic study of AChE was carried out at five different concentrations (0–8 µM) of compound 4ad by Ellman's method. […]. The inhibition constant Ki was calculated by the plot of slopes versus the corresponding concentrations of the 4ad."}, "[4]": {"conditions": "Fig. 2 traditional AChE inhibitors"}}, "note": "“Also recorded” adds a separate entry of the source. Read-outs that look alike come from different tables or passages of the source.", "data": [{"molecule": "O=C1c2ccccc2C(=O)N1Cc1cc[n+](Cc2ccc(F)cc2)cc1", "note": "[B]", "values": [{"measurement": "IC50", "setting": "AChE [1]; [4]", "value": 0.77, "unit": "µM"}, {"measurement": "IC50", "setting": "BuChE; [4]", "value": 8.71, "unit": "µM"}]}, {"molecule": "c1ccc(C[n+]2ccc(-c3nc4ccccc4s3)cc2)cc1", "note": "[C]", "values": [{"measurement": "IC50", "setting": "AChE [1]; [4]", "value": 0.014, "unit": "µM"}, {"measurement": "IC50", "setting": "BuChE; [4]", "value": 0.182, "unit": "µM"}]}, {"molecule": "CSc1c([N+](=O)[O-])c(C(C#N)C(N)=O)c(-c2ccc(Cl)cc2)n1-c1ccc(O)cc1", "note": "(stereo not shown) [Compound 4ad, 2-(2-(4-chlorophenyl)-1-(4-hydroxyphenyl)-5-(methylthio)-4-nitro-1H-pyrrol-3-yl)-2-cyanoacetamide]", "values": [{"measurement": "inhibition at 50 µM", "setting": "AChE [2]; 50 µM compound, NA = not active", "value": "89.8 ± 2.36", "unit": "%"}, {"measurement": "IC50", "setting": "AChE [2]", "value": "2.95 ± 1.31", "unit": "µM"}, {"measurement": "BChE inhibition (in words)", "setting": "BChE", "value": "no significant inhibition; also recorded: inactive"}, {"measurement": "inhibition at 50 µM", "setting": "BChE; 50 µM compound, mean ± SD, NA = not active", "value": "20 ± 1.33", "unit": "%"}, {"measurement": "type of AChE inhibition", "setting": "AChE [3]; Lineweaver-Burk plots, Km and Vmax reduced with increasing inhibitor concentration", "value": "uncompetitive"}, {"measurement": "Ki", "setting": "AChE [3]; estimated from plot of Km versus concentrations of 4ad (0-8 µM), substrate acetylthiocholine 0.1-1 mM, read-out: inhibition constant, Ki", "value": 2.84, "unit": "µM"}]}, {"molecule": "O=C(NC1CCN(Cc2ccccc2)CC1)c1cc(-c2cccc([N+](=O)[O-])c2)on1", "note": "[F]", "values": [{"measurement": "IC50", "setting": "AChE [1]; [4]", "value": 16.1, "unit": "µM"}, {"measurement": "IC50", "setting": "BuChE; [4]", "value": 15.2, "unit": "µM"}]}, {"molecule": "CN1CCC2COc3ccccc3C21", "note": "(stereo not shown) [H]", "values": [{"measurement": "IC50", "setting": "AChE [1]; Fig. 3", "value": 7.75, "unit": "µM"}, {"measurement": "IC50", "setting": "BuChE; Fig. 3", "value": 7.23, "unit": "µM"}]}, {"molecule": "CCOC(=O)c1[nH]c(-c2ccccc2)cc1-c1ccccc1", "note": "[I]", "values": [{"measurement": "IC50", "setting": "AChE [1]; Fig. 3", "value": 128, "unit": "µM"}, {"measurement": "Ki", "setting": "AChE [1]; Fig. 3, read-out: Ki against AChE", "value": "104 ± 15.4", "unit": "µM"}]}]}
